The source of these data is ChEMBL document CHEMBL4219027, “Lead Optimization of Benzoxepin-Type Selective Estrogen Receptor (ER) Modulators and Downregulators with Subtype-Specific ERα and ERβ Activity” (J Med Chem, 2018).

For orientation: IC50 means the concentration at which inhibition is half-maximal.

The structures appear in SMILES notation. Active and inactive are the calls of the source. The rule behind the calls is not given here. Some results are limits rather than exact numbers.

Series [1] has as its system MCF7. Briefly: cells. To be noted: Homo sapiens, MCF7, 72 h.
Description: Antiproliferative activity against ER-dependent human MCF7 cells after 72 hrs by MTT assay
For series [2], the species on record is Homo sapiens. The series is described as follows: Selectivity index, ratio of IC50 for human recombinant full-length estrogen receptor beta to IC50 for human recombinant full-length estrogen receptor alpha.
The target in series [3] is T1, Estrogen receptor beta (Homo sapiens, UniProt Q92731).
T1 sequence (Q92731 whole entry): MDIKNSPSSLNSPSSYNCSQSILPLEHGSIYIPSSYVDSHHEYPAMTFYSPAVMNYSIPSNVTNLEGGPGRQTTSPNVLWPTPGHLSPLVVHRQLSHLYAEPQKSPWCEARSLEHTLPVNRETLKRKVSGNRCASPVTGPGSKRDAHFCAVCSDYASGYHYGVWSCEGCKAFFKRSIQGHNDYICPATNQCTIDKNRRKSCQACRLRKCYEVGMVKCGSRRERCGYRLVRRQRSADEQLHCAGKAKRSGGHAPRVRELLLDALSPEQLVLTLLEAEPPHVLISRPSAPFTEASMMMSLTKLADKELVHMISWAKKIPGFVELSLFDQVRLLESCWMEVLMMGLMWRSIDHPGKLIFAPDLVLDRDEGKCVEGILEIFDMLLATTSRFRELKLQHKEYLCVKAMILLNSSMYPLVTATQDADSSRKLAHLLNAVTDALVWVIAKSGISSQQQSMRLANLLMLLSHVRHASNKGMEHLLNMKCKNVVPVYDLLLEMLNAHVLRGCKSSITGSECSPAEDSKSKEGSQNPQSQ
Series [4] deals with T2, Estrogen receptor (Homo sapiens, UniProt P03372).
T2 sequence (P03372 whole entry): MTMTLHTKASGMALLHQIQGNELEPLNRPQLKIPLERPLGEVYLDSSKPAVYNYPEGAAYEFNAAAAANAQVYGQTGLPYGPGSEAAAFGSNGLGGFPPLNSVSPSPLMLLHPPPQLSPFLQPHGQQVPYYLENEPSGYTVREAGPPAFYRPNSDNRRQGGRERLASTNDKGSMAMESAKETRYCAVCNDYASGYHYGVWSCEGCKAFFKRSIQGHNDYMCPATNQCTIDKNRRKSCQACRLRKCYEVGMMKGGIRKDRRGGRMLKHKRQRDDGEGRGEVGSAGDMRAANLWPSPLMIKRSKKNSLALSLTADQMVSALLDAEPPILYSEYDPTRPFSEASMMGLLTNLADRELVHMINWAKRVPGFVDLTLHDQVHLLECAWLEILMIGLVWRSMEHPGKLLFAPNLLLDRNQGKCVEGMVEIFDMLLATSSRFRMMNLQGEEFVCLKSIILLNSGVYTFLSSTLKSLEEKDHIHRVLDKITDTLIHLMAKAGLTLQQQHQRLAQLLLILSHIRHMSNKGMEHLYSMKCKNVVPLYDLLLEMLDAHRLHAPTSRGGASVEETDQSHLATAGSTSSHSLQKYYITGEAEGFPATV
Briefly: Displacement of fluorescein-labeled estradiol (fluoromone) from human recombinant full-length estrogen receptor alpha after 2 hrs by fluorescence polarization assay. For orientation: Polarisation of emitted light reports the rotation of a fluorescent probe.

In series [5] the target is T3, Estrogen receptor (Homo sapiens, UniProt Q92731+P03372). The series is described as follows: Antagonist activity at estrogen receptor alpha/beta in human Ishikawa cells after 72 hrs by alkaline phosphatase assay. It counts as cell-based.
For series [6], the system named is MCF7. Briefly: cells. To be noted: Homo sapiens.
Description: Cytotoxicity against human MCF7 cells assessed as reduction in cell viability after 3 to 12 days by MTT assay
Series [7] has as its target estrogen receptor alpha/beta (Homo sapiens, UniProt P03372+Q92731). The series is described as follows: Estrogenic activity at estrogen receptor alpha/beta in human Ishikawa cells at 100 uM after 72 hrs by alkaline phosphatase assay relative to estradiol. It counts as ADME, cell-based. To be noted: read-out: Activity.
For series [8], the target named is T1, Estrogen receptor beta. Briefly: Antagonist activity at estrogen receptor beta in human Ishikawa cells after 72 hrs by alkaline phosphatase assay. It counts as cell-based.
The target of series [9] is T4, Estrogen receptor (Homo sapiens) (UniProt P03372).
T4 sequence (whole entry): T2 sequence (P03372 whole entry)
Briefly: Downregulation of estrogen receptor alpha protein levels in human MCF7 cell lysate at 10 uM after 24 hrs by Western blot analysis. For orientation: In western blotting, separated proteins are transferred to a membrane and probed.

Series [10] has as its target T1, Estrogen receptor beta. Briefly: Downregulation of estrogen receptor beta protein levels in human MCF7 cell lysate at 10 uM after 24 hrs by Western blot analysis.
The target of series [11] is T1, Estrogen receptor beta. Briefly: Estrogenic activity at estrogen receptor beta in human Ishikawa cells at 1 uM after 72 hrs by alkaline phosphatase assay relative to estradiol. It counts as cell-based.
In series [12] the test system is MCF-10A. The series is described as follows: Cytotoxicity against human MCF10A cells assessed as reduction in cell viability at 1 to 10 uM after 24 to 48 hrs by CytoTox 96 non-radioactive LDH cytotoxicity assay. Type of series: cell-based.
Series [13] deals with T3, Estrogen receptor. The series is described as follows: Estrogenic activity at estrogen receptor alpha/beta in human Ishikawa cells at 10 uM after 72 hrs by alkaline phosphatase assay relative to estradiol. It counts as ADME, cell-based.
Series [14] addresses T3, Estrogen receptor. The series is described as follows: Estrogenic activity at estrogen receptor alpha/beta in human Ishikawa cells at 0.01 uM after 72 hrs by alkaline phosphatase assay relative to estradiol. Type of series: ADME, cell-based.
The subject of series [15] is MCF-10A. The series is described as follows: Cytotoxicity against human MCF10A cells assessed as reduction in cell viability at 1 to 2 uM after 24 to 48 hrs by CytoTox 96 non-radioactive LDH cytotoxicity assay. It counts as cell-based.
Series [16] has as its system MCF-10A. Briefly: Cytotoxicity against human MCF10A cells assessed as reduction in cell viability at 5 uM after 24 hrs by CytoTox 96 non-radioactive LDH cytotoxicity assay. It counts as cell-based.
Series [17] relates to MCF-10A. Briefly: Cytotoxicity against human MCF10A cells assessed as reduction in cell viability at 10 uM after 24 to 48 hrs by CytoTox 96 non-radioactive LDH cytotoxicity assay. It counts as cell-based.

Take `CCN(CC)CCNC(=O)/C=C/c1ccc(C2=C(c3ccc(O)cc3)CCOc3cc(F)ccc32)cc1`: the IC50 amounted to 8800 nM in [1], 585 nM in series [3] and 1020 nM in series [4]. Also, the Ratio IC50 in series [2] is 0.58.
As for `CN1CCN(C(=O)/C=C/c2ccc(C3=C(c4ccc(O)cc4)CCOc4cc(F)ccc43)cc2)CC1`, the IC50 is 480 nM in series [1], 354 nM in series [3] and 57 nM in series [4]. In addition, the Ratio IC50 in series [2] was 6.3.
`CCC(=C(c1ccc(O)cc1)c1ccc(OCCN(C)C)cc1)c1ccccc1`: the IC50 in [1] was found to be 110 nM.
With `O=C(/C=C/c1ccc(C2=C(c3ccc(O)cc3)CCOc3cc(F)ccc32)cc1)N1CCN(Cc2ccccc2)CC1`, the results for the IC50 in series [1], in [3] and in series [4] were 8400 nM, 72 nM and 74 nM, respectively. Further, the Ratio IC50 in series [2] turned out to be 1.
Take `O=C(/C=C/c1ccc(C2=C(c3ccc(O)cc3)CCOc3cc(F)ccc32)cc1)N1CCNCC1`: the results for the IC50 in series [1], in series [3] and in series [4] were 9500 nM, 25 nM and 14 nM, respectively. For the same molecule, the Ratio IC50 in [2] is 1.9.
On to `O=C(O)/C=C/c1ccc(C2=C(c3ccc(O)cc3)CCOc3ccccc32)cc1`, for which the IC50 amounted to 21000 nM in series [1], 46 nM in [3], 670 nM in series [5] and 21 nM in series [4]. For the same molecule, the Ratio IC50 in [2] was determined as 2.2.
Consider `CCC(=C(c1ccc(O)cc1)c1ccc(/C=C/C(=O)O)cc1)c1ccccc1`, for which the IC50 in series [1] was 1300 nM; in series [6], 100 to 1000 nM.
In the case of `CCN(CC)C(=O)/C=C/c1ccc(C2=C(c3ccc(O)cc3)CCOc3cc(F)ccc32)cc1`, the IC50 worked out at 13000 nM in series [1], 43 nM in [3], 9.8 nM in [5] and 349 nM in series [4]. The Ratio IC50 in series [2] worked out at 0.12. In addition, the activity at 72 h, 100 µM in [7] is 10%.
In the case of `O=C(O)CCCOc1ccc(C2=C(c3ccc(O)cc3)CCOc3cc(F)ccc32)cc1`, the IC50 in [1] was over 20000 nM; in [8], 430 nM; in series [3], 1.23 nM; in series [4] it was 147 nM. Moreover, in series [2], the Ratio IC50 came out at 0.008. Further, in series [9], the Activity result is “inactive”. The Activity result in [10] is “Active”. In addition, the Activity was 3.2% in series [11] and “Non-Toxic” in series [12].
In the case of `O=Cc1ccc(C2=C(c3ccc(O)cc3)CCOc3cc(F)ccc32)cc1`, the IC50 in [3] was determined as 395 nM; in series [4] it was 407 nM.
On to `O=C(/C=C/c1ccc(C2=C(c3ccc(O)cc3)CCOc3cc(F)ccc32)cc1)N1CCCC1`, for which the IC50 in series [1] was 14000 nM; in series [3] it was 2.4 nM; in series [4] it was 67 nM. In series [2], the Ratio IC50 came to 0.038.
Turning to `O=C(O)/C=C/c1ccc(C2=C(c3ccc(O)cc3)CCSc3cc(F)ccc32)cc1`, the IC50 in series [1] worked out at 95 nM; in series [3] it was 3.1 nM; in series [5], 180 nM; in series [4] it was 4.1 nM. The Ratio IC50 in series [2] is 0.8. The same molecule had an Activity in [13] of 1.6%.
In the case of `O=C(O)/C=C/c1ccc(C2=C(c3ccc(O)cc3)CCOc3cc(F)ccc32)cc1`, the IC50 in [1] was 260 nM; in series [3], 72 nM; in [5], 1390 nM; in series [4], 14 nM. The Ratio IC50 in series [2] was found to be 5.2.
Turning to `COc1ccc2c(c1)OCCC(c1ccc(O)cc1)=C2c1ccc(OCC(=O)O)cc1`, the values for the concentration for half-maximal inhibition (IC50) in [1], in [3] and in series [4] were over 20000 nM, 1010 nM and 429 nM, respectively. In addition, the Ratio IC50 in series [2] worked out at 2.4.
Take `CC(=O)/C=C/c1ccc(C2=C(c3ccc(O)cc3)CCOc3cc(F)ccc32)cc1`: the IC50 was determined as 890 nM in [1], 175 nM in series [3], 450 nM in series [5] and 59 nM in series [4]. Also, the Ratio IC50 in [2] is 3.
For the molecule `Oc1ccc(C2=C(c3ccc(/C=C/c4ccccc4)cc3)c3ccc(F)cc3OCC2)cc1`, the IC50 in [1] came to 12000 nM; in series [3], 14300 nM; in [4] it was 22400 nM. Also, in series [2], the Ratio IC50 was 0.6.
As to `O=C(O)COc1ccc(C2=C(c3ccc(O)cc3)CCOc3cc(F)ccc32)cc1`, the IC50 was over 20000 nM in [1], 34 nM in series [3] and 634 nM in [4]. In [2], the Ratio IC50 is 0.054.
In the case of `COc1ccc2c(c1)OCCC(c1ccc(O)cc1)=C2c1ccc(/C=C/C(=O)O)cc1`, the IC50 in series [1] was over 20000 nM; in series [3] it was 119 nM; in series [5], over 1000 nM; in series [4], 23 nM. This molecule gave an Activity in [14] of 15.8%. Besides, the Ratio IC50 in series [2] was determined as 5.3.
`O=C(/C=C/c1ccc(C2=C(c3ccc(O)cc3)CCOc3cc(F)ccc32)cc1)c1ccccc1`: the figures for the IC50 in [1], in series [3] and in [4] were 970 nM, 447 nM and 104 nM, respectively. Also, the Ratio IC50 in series [2] amounted to 4.2.
Take `Cc1ccc(N2CCN(C(=O)/C=C/c3ccc(C4=C(c5ccc(O)cc5)CCOc5cc(F)ccc54)cc3)CC2)cc1`: the IC50 is 1050 nM in [1], 203 nM in series [3] and 48 nM in series [4]. In addition, in series [2], the Ratio IC50 was 4.3.
For the molecule `CCNC(=O)/C=C/c1ccc(C2=C(c3ccc(O)cc3)CCOc3cc(F)ccc32)cc1`, in [1], half-maximal inhibition (IC50) required 700 nM.
For `O=C(/C=C/c1ccc(C2=C(c3ccc(O)cc3)CCOc3cc(F)ccc32)cc1)Nc1ccccc1`, the IC50 in series [1] amounted to 1300 nM; in series [3], 0.94 nM; in series [4] it was 11.7 nM. Also, the Ratio IC50 in [2] is 0.087.
With `O=C(O)/C=C/C=C/c1ccc(C2=C(c3ccc(O)cc3)CCOc3cc(F)ccc32)cc1`, the IC50 was found to be 1600 nM in series [1], 0.55 nM in [3] and 71.6 nM in [4]. Besides, the Activity entry is “Non-Toxic” in series [15], 50% in series [16] and “Toxic” in series [17]. In addition, the Ratio IC50 in [2] was determined as 0.008. Further, the Activity entry in [9] and in series [10] was “Active” throughout.
